Assay results: ChEMBL document CHEMBL5375981, “Enhanced Tumor Targeting and Penetration of Proteolysis-Targeting Chimeras through iRGD Peptide Conjugation: A Strategy for Precise Protein Degradation in Breast Cancer” (J Med Chem, 2023)
Values after ≈ are worked out from the molar mass of the structure shown. Active and inactive are the calls of the source. The calls are words filed in the database; no cut-off is given here.

Columns and labels:
[1] = target: Bromodomain-containing protein 4 (Homo sapiens) (UniProt O60885); experiment: Induction of BRD4 degradation in human MDA-MB-231 cells harboring high integrin alphaVbeta3 expression at 1 uM incubated for 12 hrs by immunofluorescence staining based confocal microscopic analysis; format: cell-based
[2] = system: MDA-MB-231; experiment: Antitumor activity against human MDA-MB-231 cells xenografted in BALB/C nude mouse assessed as tumor growth inhibition at 5 uM, iv administered every other day and measured after 21 days by vernier caliper method relative to control; format: functional; details: MDA-MB-231, 504 h, time 21 day, read-out: TGI
[3] = Toxicity in BALB/C mouse xenografted with human MDA-MB-231 cells assessed as effect on kidney weight at 5 uM, iv administered every other day for 21 days; format: organism-based; details: in vivo, 504 h, time 21 day
[4] = Solubility in distilled water measured for 30 mins by ultraviolet spectrophotometry analysis; format: physicochemical
[5] = Toxicity in BALB/C mouse xenografted with human MDA-MB-231 cells assessed as effect on spleen weight at 5 uM, iv administered every other day for 21 days; format: organism-based; details: in vivo, 504 h, time 21 day
[6] = target: Bromodomain-containing protein 4 (Homo sapiens) (UniProt O60885); experiment: Induction of BRD4 degradation in human MCF7 cells harboring low integrin alphaVbeta3 expression at 0.11 uM incubated for 24 hrs by Western blot analysis relative to control; format: cell-based
[7] = target: Bromodomain-containing protein 4 (Homo sapiens) (UniProt O60885); experiment: Induction of BRD4 degradation in human L02 cells lacking integrin alphaVbeta3 expression at 300 nM measured at 24 hrs by Western blot analysis relative to control; format: cell-based
[8] = target: Bromodomain-containing protein 4 (Homo sapiens) (UniProt O60885); experiment: Induction of BRD4 degradation in human MCF7 cells harboring low integrin alphaVbeta3 expression at 300 nM incubated for 12 hrs by immunofluorescence staining based confocal microscopic analysis; format: cell-based
[9] = target: Bromodomain-containing protein 4 (Homo sapiens) (UniProt O60885); experiment: Induction of BRD4 degradation in human L02 cells lacking integrin alphaVbeta3 expression at 300 nM incubated for 12 hrs by immunofluorescence staining based confocal microscopic analysis; format: cell-based
[10] = system: MCF7; experiment: Antiproliferative activity against human MCF7 cells harboring low integrin alphaVbeta3 expression assessed as inhibition of cell growth incubated for 72 hrs by CCK-8 assay; format: functional, cell-based; details: MCF7, 72 h
[11] = target: Bromodomain-containing protein 4 (Homo sapiens) (UniProt O60885); experiment: Induction of BRD4 degradation in human MDA-MB-231 cells harboring high integrin alphaVbeta3 expression at 0.11 uM incubated for 24 hrs by Western blot analysis; format: cell-based
[12] = system: L02; experiment: Antimigratory activity against human L02 cells lacking integrin alphaVbeta3 expression assessed as inhibition of cell migration at 200 nM incubated for 48 hrs by crystal violet staining based transwell assay; format: functional
[13] = target: Bromodomain-containing protein 4 (Homo sapiens) (UniProt O60885); experiment: Induction of BRD4 degradation in human MCF7 cells harboring low integrin alphaVbeta3 expression at 300 nM measured at 16 hrs by Western blot analysis; format: cell-based
[14] = system: MCF7; experiment: Antimigratory activity against human MCF7 cells harboring low integrin alphaVbeta3 expression assessed as inhibition of cell migration at 200 nM incubated for 48 hrs by crystal violet staining based transwell assay; format: functional
[15] = Toxicity in BALB/C mouse xenografted with human MDA-MB-231 cells assessed as effect on lung weight at 5 uM, iv administered every other day for 21 days; format: organism-based; details: in vivo, 504 h, time 21 day
[16] = target: Bromodomain-containing protein 4 (Homo sapiens) (UniProt O60885); experiment: Induction of BRD4 degradation in human L02 cells lacking integrin alphaVbeta3 expression at 0.33 uM incubated for 24 hrs by Western blot analysis relative to control; format: cell-based
[17] = Toxicity in BALB/C mouse xenografted with human MDA-MB-231 cells assessed as weight loss at 5 uM, iv administered for 21 days and measured every 3 days; format: organism-based; details: in vivo, 504 h, time 21 day
[18] = Toxicity in BALB/C mouse xenografted with human MDA-MB-231 cells assessed as effect on heart weight at 5 uM, iv administered every other day for 21 days; format: organism-based; details: in vivo, 504 h, time 21 day
[19] = system: MDA-MB-231; experiment: Antiproliferative activity against human MDA-MB-231 cells harboring high integrin alphaVbeta3 expression assessed as inhibition of cell growth incubated for 72 hrs by CCK-8 assay; format: functional, cell-based; details: MDA-MB-231, 72 h
[20] = system: L02; experiment: Antiproliferative activity against human L02 cells harboring minimal integrin alphaVbeta3 expression assessed as inhibition of cell growth incubated for 72 hrs by CCK-8 assay; format: functional, cell-based; details: L02, 72 h
[21] = Toxicity in BALB/C mouse xenografted with human MDA-MB-231 cells assessed as effect on liver weight at 5 uM, iv administered every other day for 21 days; format: organism-based; details: in vivo, 504 h, time 21 day
[22] = target: Bromodomain-containing protein 4 (Homo sapiens) (UniProt O60885); experiment: Induction of BRD4 degradation in human MCF7 cells harboring low integrin alphaVbeta3 expression at 0.04 uM incubated for 24 hrs by Western blot analysis; format: cell-based
[23] = Antitumor activity against patient-derived Breast cancer organoid assessed as inhibition of cell growth incubated for approximately 3 to 5 days by CCK-8 assay; format: functional, tissue-based; details: Homo sapiens
[24] = target: Bromodomain-containing protein 4 (Homo sapiens) (UniProt O60885); experiment: Induction of BRD4 degradation in human MCF7 cells harboring low integrin alphaVbeta3 expression at 300 nM measured at 20 hrs by Western blot analysis relative to control; format: cell-based
[25] = target: Bromodomain-containing protein 4 (Homo sapiens) (UniProt O60885); experiment: Induction of BRD4 degradation in human MDA-MB-231 cells harboring high integrin alphaVbeta3 expression at 300 nM measured at 24 hrs by Western blot analysis; format: cell-based
[26] = system: MDA-MB-231; experiment: Antitumor activity against human MDA-MB-231 cells xenografted in BALB/C nude mouse assessed as disruption of tumor blood vessel wall at 5 uM, iv administered every other day and measured after 21 days by H and E staining based assay; format: functional, organism-based; details: time 21.0 day
[27] = Toxicity in BALB/C mouse xenografted with human MDA-MB-231 cells assessed as lung damage at 5 uM, iv administered every other day for 21 days and measured 37 days post treatment by H and E staining based assay; format: organism-based; details: in vivo, 1392 h, time 58 day
[28] = Toxicity in BALB/C mouse xenografted with human MDA-MB-231 cells assessed as adverse reactions at 5 uM, iv administered for 21 days and measured every 3 days; format: organism-based; details: in vivo, 504 h, time 21 day
[29] = Stability of compound in PBS containing 5% serum at 50 uM measured after 72 hrs by LC-MS analysis; format: physicochemical, cell-free; details: read-out: Stability
[30] = target: Bromodomain-containing protein 4 (Homo sapiens) (UniProt O60885); experiment: Induction of BRD4 degradation in human MCF7 cells harboring low integrin alphaVbeta3 expression at 0.01 to 1 uM incubated for 24 hrs by Western blot analysis; format: cell-based; details: dose 0.01-1 µM
[31] = target: Bromodomain-containing protein 4 (Homo sapiens) (UniProt O60885); experiment: Induction of BRD4 degradation in human MDA-MB-231 cells harboring high integrin alphaVbeta3 expression at 300 nM incubated for 16 to 20 hrs by Western blot analysis; format: cell-based; details: time 16-20 hrs
[32] = target: Bromodomain-containing protein 4 (Homo sapiens) (UniProt O60885); experiment: Induction of BRD4 degradation in human L02 cells lacking integrin alphaVbeta3 expression at 0.01 to 1 uM incubated for 24 hrs by Western blot analysis; format: cell-based; details: dose 0.01-1 µM
[33] = Drug release in PBS assessed as increase in (2S)-1-((R)-2-(tert-butyl)-17-((S)-4-(4-chlorophenyl)-2,3,9-trimethyl-6H-thieno[3,2-f][1,2,4]triazolo[4,3-a][1,4]diazepin-6-yl)-4,16-dioxo-6,9,12-trioxa-3,15-diazaheptadecanoyl)-4-hydroxy-N-((S)-1-(4-(4-methylthiazol-5-yl)phenyl)ethyl)pyrrolidine-2-carboxamide concentration at 50 uM in presence of GSH by LC-MS analysis; format: ADME; details: buffer, TDE = time-dependent effect

Cc1ncsc1-c1ccc([C@H](C)NC(=O)[C@@H]2C[C@@H](O)CN2C(=O)[C@@H](NC(=O)COCCOCCOCCNC(=O)C[C@@H]2N=C(c3ccc(Cl)cc3)c3c(sc(C)c3C)-n3c(C)nnc32)C(C)(C)C)cc1
Activity [1]: Active | inhibition in vivo at 5 µM [2]: 36.3% | Activity [3]: Non-Toxic | solubility at 0.5 h [4]: 29.5 mM (≈ 30 mg/mL) | Activity [5]: Non-Toxic | Activity [6]: 100% | Activity [7]: 100% | Activity [8]: Active | Activity [9]: Active | IC50 [10]: 30 nM | Activity [11]: Active | Activity [12]: Active | Activity [13]: Active | Activity [14]: Active | Activity [15]: Non-Toxic | Activity [16]: 100% | Activity [17]: Non-Toxic | Activity [18]: Non-Toxic | IC50 [19]: 90 nM | IC50 [20]: 400 nM | Activity [21]: Non-Toxic | Activity [22]: Active | IC50 [23]: 2100 nM | Activity [24]: 100% | Activity [25]: Active | Activity [26]: inactive | Activity [27]: Toxic | Activity [28]: Non-Toxic

Cc1ncsc1-c1ccc([C@H](C)NC(=O)[C@@H]2C[C@@H](OC(=O)CCC(=O)N[C@@H](Cc3c[nH]cn3)C(=O)N[C@@H](Cc3c[nH]cn3)C(=O)NCC(=O)N[C@@H](CCCNC(=N)N)C(=O)NCC(=O)N[C@@H](CC(=O)O)C(=O)O)CN2C(=O)[C@@H](NC(=O)COCCOCCOCCNC(=O)C[C@@H]2N=C(c3ccc(Cl)cc3)c3c(sc(C)c3C)-n3c(C)nnc32)C(C)(C)C)cc1
solubility at 0.5 h [4]: > 10 mM | remaining at 72 h, 50 µM [29]: 10.2%

Cc1ncsc1-c1ccc([C@H](C)NC(=O)[C@@H]2C[C@@H](OC(=O)OCCSSCCOC(=O)CCC(=O)N[C@@H](CCCNC(=N)N)C(=O)NCC(=O)N[C@@H](CC(=O)O)C(=O)O)CN2C(=O)[C@@H](NC(=O)COCCOCCOCCNC(=O)C[C@@H]2N=C(c3ccc(Cl)cc3)c3c(sc(C)c3C)-n3c(C)nnc32)C(C)(C)C)cc1
Activity [30]: inactive | Activity [1]: Active | solubility at 0.5 h [4]: > 10 mM | Activity [31]: Active | Activity [8]: inactive | remaining at 72 h, 50 µM [29]: 94.6% | Activity [9]: inactive | IC50 [10]: 190 nM | Activity [11]: Active | Activity [32]: inactive | IC50 [19]: 190 nM | IC50 [20]: 980 nM | Drug metabolism [33]: Tde
